Measured values as given in PMC11487561 (ACS Chemical Neuroscience, 2024).

Assays:
CYP 3A4 = biological target: T1, CYP 3A4 (Homo sapiens, UniProt P08684); assay: P450 inhibition in pooled human liver microsomes; format: in vitro ADME; conditions: pooled HLM, NADPH, CYP-specific probe substrates
T1 construct: from tissue; host or cells: pooled human liver microsomes (according to the earlier reading)

In vivo rat iv/po PK = conditions: male, Sprague-Dawley, plasma, rat (SD); for bioavailability: rat, po
Description: Intravenous pharmacokinetics and plasma-brain level determination (IV PK PBL) VU6016235 […]
Dawley rats (n = 1; 342 gram body weights) via injection into a surgically-implanted jugular vein catheter. […] Blood samples were collected serially from a surgically implanted carotid artery catheter in each animal over multiple post-administration time points (0.033, 0.117, 0.25, 0.5, 1, 2, 4, 7, and 24 hours) into chilled, K2EDTA anticoagulant-fortified tubes and immediately placed on wet ice. […]
For PO PK studies, VU6016235 was formulated in 10% Tween 80 in water and administered orally as a single dose of 10 mg/kg to male Sprague Dawley rats (10 ml/kg, n=2) that were fasted overnight. […]
anticoagulant-fortified tubes and immediately placed on wet ice. The blood samples were then centrifuged (1700 rcf, 5 minutes, 4 °C) in order to obtain plasma samples, which were stored at -80 °C until analysis […]
Samples preparation for bioanalysis
Plasma samples from the in-life phase of the study were thawed at ambient temperature (benchtop), and then aliquots (20 µL per sample) were transferred to a 96-shallow-well (V-bottom) plate. Matrix-matched quality control (QC) samples and a standard curve of […] (1 mg/mL DMSO stock solution) were prepared in blank rat plasma (K2EDTA-treated) or blank brain homogenate via serial dilution and transferred (20 µL each) to the plate along with multiple blank plasma and brain homogenate samples. Acetonitrile (120 µL) containing IS (10 nM carbamazepine) was added to each well of the plate to precipitate protein. The plate was then centrifuged (4000 rcf, 5 minutes, ambient temperature), and resulting supernatants (60 µL each) were transferred to a new 96-shallow-well (V-bottom) plate containing an equal volume (60 µL per well) of water (Milli-Q purified). […]
The plasma standard curve and QCs were used for compounds quantitation in brain.
Binding in plasma from rat and human.
Determination of compounds’ fraction unbound (f u) in plasma from rat and human was conducted in vitro via equilibrium dialysis using HTDialysis membrane plates. Dialysis membranes (four paired strips per HTD assay) were hydrated as described by the manufacturer and inserted into the HTD plate, which was assembled and prepared for sample addition by the dispensing of blank buffer (DPBS, 100 µL/well) into the ‘top half’ of each membrane-split well. Each compound was diluted into plasma from each species (5 µM final concentration), which was aliquoted in triplicate to the ‘bottom half’ of the prepared HTD plate wells. The HTD plate was sealed and incubated for 6 hours at 37 °C. Following incubation, each well (both top and bottom halves) were transferred (20 µL) to the corresponding wells of a 96-shallow-well (V-bottom) plate. The daughter plates were then matrix-matched (buffer side wells received equal volume of plasma, and plasma side wells received equal volume of buffer), and extraction solution (120 µL; acetonitrile containing 50 nM carbamazepine as IS) was added to all wells of both daughter plates to precipitate protein and extract test article. The plates were then sealed and centrifuged (3500 rcf) for 10 minutes at ambient temperature. Supernatant (60 µL) from each well of the daughter plates was then transferred to the corresponding wells of new daughter plates (96-shallow-well, V bottom) containing water (Milli-Q, 60 µL/well), and the plates were sealed in preparation for LC-MS/MS analysis (see below). fu was calculated as (analyte to IS MS peak area ratio from Trans-buffer side) / (analyte to IS MS peak area ratio from Cis-plasma side). Mean values for each species were calculated from 3 replicates.

Adenosine A2A = biological target: T2, Adenosine A2A (Homo sapiens, UniProt P29274); assay: Lead Profiling Screen – Eurofins Panlabs; format: binding; conditions: read-out: % inh at 10 μM
T2 construct: Eurofins Panlabs
T2 sequence (P29274 whole entry): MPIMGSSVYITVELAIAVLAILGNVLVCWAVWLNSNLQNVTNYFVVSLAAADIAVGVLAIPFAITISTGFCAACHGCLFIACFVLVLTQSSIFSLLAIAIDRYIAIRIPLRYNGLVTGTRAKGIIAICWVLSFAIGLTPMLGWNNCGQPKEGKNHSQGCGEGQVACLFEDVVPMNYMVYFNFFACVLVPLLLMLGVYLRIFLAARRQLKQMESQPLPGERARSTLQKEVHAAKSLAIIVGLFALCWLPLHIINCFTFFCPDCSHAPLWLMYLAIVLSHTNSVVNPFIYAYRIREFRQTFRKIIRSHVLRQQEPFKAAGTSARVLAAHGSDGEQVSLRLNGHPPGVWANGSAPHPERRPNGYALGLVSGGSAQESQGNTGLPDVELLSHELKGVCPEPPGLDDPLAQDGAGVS

Adrenergic α1D = biological target: T3, Adrenergic α1D (Homo sapiens, UniProt P25100); assay: Lead Profiling Screen – Eurofins Panlabs; format: binding; conditions: read-out: % inh at 10 μM
T3 construct: Eurofins Panlabs (contract screen)
T3 sequence (P25100 whole entry): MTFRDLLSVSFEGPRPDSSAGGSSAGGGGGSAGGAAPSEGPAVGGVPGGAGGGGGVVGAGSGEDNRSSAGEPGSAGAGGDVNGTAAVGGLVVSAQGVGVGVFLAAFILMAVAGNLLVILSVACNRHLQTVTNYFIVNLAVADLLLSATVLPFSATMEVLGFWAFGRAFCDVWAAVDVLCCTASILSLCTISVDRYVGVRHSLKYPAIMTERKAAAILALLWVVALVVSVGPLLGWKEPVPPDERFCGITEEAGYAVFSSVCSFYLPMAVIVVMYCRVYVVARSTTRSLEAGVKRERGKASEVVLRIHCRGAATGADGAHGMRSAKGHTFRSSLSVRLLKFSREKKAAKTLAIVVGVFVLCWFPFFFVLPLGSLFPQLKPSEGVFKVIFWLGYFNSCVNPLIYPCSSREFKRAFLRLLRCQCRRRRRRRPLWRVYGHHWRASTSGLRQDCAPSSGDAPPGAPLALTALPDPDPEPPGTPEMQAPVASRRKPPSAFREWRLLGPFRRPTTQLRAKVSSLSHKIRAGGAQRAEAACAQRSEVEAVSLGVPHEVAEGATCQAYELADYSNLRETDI

Adrenergic β2 = biological target: T4, Adrenergic β2 (Homo sapiens, UniProt P07550); assay: Lead Profiling Screen – Eurofins Panlabs; format: binding; conditions: read-out: % inh at 10 μM
T4 construct: Eurofins Panlabs (contract screen)

Androgen (Testosterone) = assay: Lead Profiling Screen – Eurofins Panlabs; format: binding, human
Bradykinin B2 = biological target: T5, Bradykinin B2 (Homo sapiens, UniProt P30411); assay: Lead Profiling Screen – Eurofins Panlabs; format: binding; conditions: read-out: % inh at 10 μM
T5 construct: Eurofins Panlabs (contract screen)
T5 sequence (P30411 whole entry): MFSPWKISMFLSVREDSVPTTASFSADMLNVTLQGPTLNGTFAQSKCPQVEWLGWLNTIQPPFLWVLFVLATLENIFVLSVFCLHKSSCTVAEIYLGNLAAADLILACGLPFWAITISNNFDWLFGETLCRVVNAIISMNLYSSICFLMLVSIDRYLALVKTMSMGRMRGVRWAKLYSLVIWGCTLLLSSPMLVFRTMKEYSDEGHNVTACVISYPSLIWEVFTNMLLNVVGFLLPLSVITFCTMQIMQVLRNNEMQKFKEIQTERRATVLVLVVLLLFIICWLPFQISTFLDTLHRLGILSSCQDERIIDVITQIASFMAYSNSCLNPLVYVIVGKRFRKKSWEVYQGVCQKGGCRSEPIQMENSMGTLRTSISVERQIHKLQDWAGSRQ

[1] = test system: Calcium Channel L-Type, Benzothiazepine; assay: Lead Profiling Screen – Eurofins Panlabs; format: binding, rat
[2] = test system: Calcium Channel L-Type, Dihydropyridine; assay: Lead Profiling Screen – Eurofins Panlabs; format: binding, rat
Cannabinoid CB1 = biological target: T6, Cannabinoid CB1 (Homo sapiens, UniProt P21554); assay: Lead Profiling Screen – Eurofins Panlabs; format: binding; conditions: read-out: % inh at 10 μM
T6 construct: Eurofins Panlabs (contract screen)
T6 sequence (P21554 whole entry): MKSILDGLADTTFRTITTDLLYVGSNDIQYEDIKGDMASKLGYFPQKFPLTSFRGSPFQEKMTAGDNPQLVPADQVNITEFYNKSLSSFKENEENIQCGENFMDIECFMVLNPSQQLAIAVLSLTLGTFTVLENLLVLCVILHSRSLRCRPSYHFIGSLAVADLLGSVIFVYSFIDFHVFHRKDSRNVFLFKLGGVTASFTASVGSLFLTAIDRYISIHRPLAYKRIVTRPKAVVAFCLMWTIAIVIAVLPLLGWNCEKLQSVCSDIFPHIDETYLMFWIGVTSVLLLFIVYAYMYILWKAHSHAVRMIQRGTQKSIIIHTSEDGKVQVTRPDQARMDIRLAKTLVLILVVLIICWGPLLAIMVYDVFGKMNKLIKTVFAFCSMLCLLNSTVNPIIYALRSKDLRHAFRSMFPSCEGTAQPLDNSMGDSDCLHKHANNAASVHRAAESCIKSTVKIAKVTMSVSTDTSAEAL

[3] = biological target: T7, Epidermal Growth Factor (EGF) (Homo sapiens, UniProt P00533); assay: Lead Profiling Screen – Eurofins Panlabs; format: binding; conditions: read-out: % inh at 10 μM
T7 construct: Eurofins Panlabs (contract screen)

Glutamate, NMDA, Glycine = Glutamate, NMDA, Glycine (Rattus norvegicus, UniProt P35439); assay: Lead Profiling Screen – Eurofins Panlabs; format: binding; conditions: read-out: % inh at 10 μM
Chain of Glutamate, NMDA, Glycine (P35439 394-800 limits assumed): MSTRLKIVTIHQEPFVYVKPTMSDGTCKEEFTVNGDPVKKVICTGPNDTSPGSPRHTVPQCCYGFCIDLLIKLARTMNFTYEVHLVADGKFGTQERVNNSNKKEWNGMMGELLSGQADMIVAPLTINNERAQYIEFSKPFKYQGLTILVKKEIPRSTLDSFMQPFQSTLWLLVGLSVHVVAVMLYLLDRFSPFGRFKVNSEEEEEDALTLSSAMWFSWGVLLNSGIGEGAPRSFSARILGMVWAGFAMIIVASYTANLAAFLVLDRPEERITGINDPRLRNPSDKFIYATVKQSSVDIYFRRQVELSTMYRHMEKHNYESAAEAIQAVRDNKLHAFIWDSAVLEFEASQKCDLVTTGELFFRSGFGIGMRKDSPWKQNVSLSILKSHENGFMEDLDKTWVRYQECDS

Melatonin MT1 = Melatonin MT1 (Homo sapiens, UniProt P48039); assay: Lead Profiling Screen – Eurofins Panlabs; format: binding; conditions: read-out: % inh at 10 μM
Chain of Melatonin MT1 (P48039 whole entry): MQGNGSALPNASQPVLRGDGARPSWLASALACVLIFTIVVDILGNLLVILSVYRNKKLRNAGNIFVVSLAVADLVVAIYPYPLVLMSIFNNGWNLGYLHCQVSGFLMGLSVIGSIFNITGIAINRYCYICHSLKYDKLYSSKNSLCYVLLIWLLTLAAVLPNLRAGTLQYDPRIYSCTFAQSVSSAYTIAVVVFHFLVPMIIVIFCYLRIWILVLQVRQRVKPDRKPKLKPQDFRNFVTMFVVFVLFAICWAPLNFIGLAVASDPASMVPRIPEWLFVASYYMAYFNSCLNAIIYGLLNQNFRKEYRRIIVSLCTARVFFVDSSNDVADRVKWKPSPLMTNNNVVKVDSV

Muscarinic M3 = Muscarinic M3 (Homo sapiens, UniProt P20309); assay: Lead Profiling Screen – Eurofins Panlabs; format: binding; conditions: read-out: % inh at 10 μM
Chain of Muscarinic M3 (P20309 whole entry): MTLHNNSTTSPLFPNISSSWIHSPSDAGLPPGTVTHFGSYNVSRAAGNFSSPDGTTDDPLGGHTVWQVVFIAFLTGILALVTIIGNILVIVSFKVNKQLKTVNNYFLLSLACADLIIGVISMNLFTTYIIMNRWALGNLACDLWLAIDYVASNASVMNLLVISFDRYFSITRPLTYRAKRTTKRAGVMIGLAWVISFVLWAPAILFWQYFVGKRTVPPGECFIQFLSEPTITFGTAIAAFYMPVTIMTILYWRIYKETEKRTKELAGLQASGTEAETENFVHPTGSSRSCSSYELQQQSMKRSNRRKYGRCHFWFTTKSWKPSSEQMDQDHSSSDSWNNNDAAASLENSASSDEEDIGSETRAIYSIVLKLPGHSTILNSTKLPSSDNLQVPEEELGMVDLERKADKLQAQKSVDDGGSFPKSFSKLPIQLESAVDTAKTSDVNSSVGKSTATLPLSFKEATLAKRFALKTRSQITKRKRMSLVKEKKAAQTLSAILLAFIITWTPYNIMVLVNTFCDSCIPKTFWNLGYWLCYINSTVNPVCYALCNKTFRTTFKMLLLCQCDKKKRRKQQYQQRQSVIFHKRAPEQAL

[4] = biological target: Platelet Activating Factor (PAF) (Homo sapiens, UniProt P25105); assay: Lead Profiling Screen – Eurofins Panlabs; format: binding; conditions: read-out: % inh at 10 μM
Chain of Platelet Activating Factor (PAF) (P25105 whole entry): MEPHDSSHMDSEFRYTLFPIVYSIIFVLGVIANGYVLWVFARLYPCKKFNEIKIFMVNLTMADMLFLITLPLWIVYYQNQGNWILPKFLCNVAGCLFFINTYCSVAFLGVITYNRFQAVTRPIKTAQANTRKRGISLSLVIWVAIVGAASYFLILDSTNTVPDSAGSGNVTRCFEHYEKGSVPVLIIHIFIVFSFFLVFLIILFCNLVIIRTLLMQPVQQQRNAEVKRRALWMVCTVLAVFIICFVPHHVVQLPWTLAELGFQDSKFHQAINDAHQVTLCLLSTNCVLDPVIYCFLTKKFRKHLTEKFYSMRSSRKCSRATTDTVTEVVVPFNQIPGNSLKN

hERG potassium channel = hERG potassium channel (Homo sapiens, UniProt Q12809); assay: Lead Profiling Screen – Eurofins Panlabs; format: binding; conditions: read-out: % inh at 10 μM
Prostanoid EP4 = Prostanoid EP4 (Homo sapiens, UniProt P35408); assay: Lead Profiling Screen – Eurofins Panlabs; format: binding; conditions: read-out: % inh at 10 μM
Chain of Prostanoid EP4 (P35408 whole entry): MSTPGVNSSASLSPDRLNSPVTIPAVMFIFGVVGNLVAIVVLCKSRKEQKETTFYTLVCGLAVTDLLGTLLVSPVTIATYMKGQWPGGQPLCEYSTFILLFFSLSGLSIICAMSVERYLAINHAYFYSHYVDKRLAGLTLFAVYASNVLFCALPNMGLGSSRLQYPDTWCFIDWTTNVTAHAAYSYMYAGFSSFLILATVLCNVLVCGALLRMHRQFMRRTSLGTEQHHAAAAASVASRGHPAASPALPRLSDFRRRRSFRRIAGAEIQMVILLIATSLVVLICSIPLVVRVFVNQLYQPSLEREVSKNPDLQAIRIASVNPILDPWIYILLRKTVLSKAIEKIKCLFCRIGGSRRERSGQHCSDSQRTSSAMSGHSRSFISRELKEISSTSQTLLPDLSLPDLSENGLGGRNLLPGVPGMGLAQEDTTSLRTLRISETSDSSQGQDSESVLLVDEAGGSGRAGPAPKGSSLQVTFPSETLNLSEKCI

[5] = biological target: Serotonin (5-Hydroxytryptamine) 5-HT1A (Homo sapiens, UniProt P08908); assay: Lead Profiling Screen – Eurofins Panlabs; format: binding; conditions: read-out: % inh at 10 μM
Chain of Serotonin (5-Hydroxytryptamine) 5-HT1A (P08908 whole entry): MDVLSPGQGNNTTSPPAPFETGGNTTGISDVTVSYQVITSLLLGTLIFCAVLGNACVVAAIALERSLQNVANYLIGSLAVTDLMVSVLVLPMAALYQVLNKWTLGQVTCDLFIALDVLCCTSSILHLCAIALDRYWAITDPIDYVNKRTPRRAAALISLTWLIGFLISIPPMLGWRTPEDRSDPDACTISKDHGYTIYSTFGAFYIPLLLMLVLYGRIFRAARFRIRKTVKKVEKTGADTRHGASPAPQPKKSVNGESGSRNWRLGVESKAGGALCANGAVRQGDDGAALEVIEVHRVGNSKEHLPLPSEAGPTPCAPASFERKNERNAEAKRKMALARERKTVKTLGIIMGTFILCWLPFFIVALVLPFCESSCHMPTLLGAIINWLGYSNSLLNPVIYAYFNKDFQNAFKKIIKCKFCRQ

Sigma σ1 = Sigma σ1 (Homo sapiens, UniProt Q99720); assay: Lead Profiling Screen – Eurofins Panlabs; format: binding; conditions: read-out: % inh at 10 μM
Transporter, GABA = assay: Lead Profiling Screen – Eurofins Panlabs; format: binding, rat
[6] = biological target: Transporter, Serotonin (5-Hydroxytryptamine) (SERT) (Homo sapiens, UniProt P31645); assay: Lead Profiling Screen – Eurofins Panlabs; format: binding; conditions: read-out: % inh at 10 μM

T1 sequence (P08684 whole entry): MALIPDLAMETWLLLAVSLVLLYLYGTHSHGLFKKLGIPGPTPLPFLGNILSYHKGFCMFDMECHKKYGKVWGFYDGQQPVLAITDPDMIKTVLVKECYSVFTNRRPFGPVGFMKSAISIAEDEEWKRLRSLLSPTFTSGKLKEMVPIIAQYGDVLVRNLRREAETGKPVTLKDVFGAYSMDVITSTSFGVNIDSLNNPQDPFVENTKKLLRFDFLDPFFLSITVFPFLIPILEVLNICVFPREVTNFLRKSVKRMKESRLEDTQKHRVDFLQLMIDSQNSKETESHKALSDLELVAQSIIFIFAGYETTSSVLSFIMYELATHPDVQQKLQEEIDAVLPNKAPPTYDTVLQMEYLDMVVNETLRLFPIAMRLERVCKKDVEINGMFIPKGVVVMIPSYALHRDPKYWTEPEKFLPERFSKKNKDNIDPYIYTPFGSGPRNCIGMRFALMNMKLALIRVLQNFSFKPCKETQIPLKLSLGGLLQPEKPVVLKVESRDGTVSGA

## Cc1nc(C)c2c(n1)sc1c(NCc3ccc(C(C)(C)O)cc3)nccc12 [22g]
CYP 3A4
  IC50: 17 µM
In vivo rat iv/po PK; iv 1.0 mg/kg
  MRT: 4.3 h
  half-life: 3.4 h
In vivo rat iv/po PK; iv 1.0 mg/kg, read-out: CLp
  clearance: 4.9 mL/min/kg
In vivo rat iv/po PK; iv 1.0 mg/kg, read-out: Vss
  Vd: 1.3 L/kg
In vivo rat iv/po PK; po 3.0 mg/kg
  AUC(0-inf): 8410 ng·h/mL
  Cmax: 657 ng/mL
  Tmax: 3 h
In vivo rat iv/po PK; po 30.0 mg/kg
  AUC(0-inf): 59200 ng·h/mL
  Cmax: 4460 ng/mL
  Tmax: 5 h
In vivo rat iv/po PK; 3 mg/kg, po 3.0 mg/kg
  bioavailability: ≥ 100%
In vivo rat iv/po PK; 30 mg/kg, po 30.0 mg/kg
  bioavailability: 84%
Adenosine A2A
  inhibition at 10 µM: 28%
Adrenergic α1D
  inhibition at 10 µM: 5%
Adrenergic β2
  inhibition at 10 µM: -5%
Androgen (Testosterone)
  % inh at 10 μM: 5%
Bradykinin B2
  inhibition at 10 µM: -1%
[1]
  % inh at 10 μM: 6%
[2]
  % inh at 10 μM: -1%
Cannabinoid CB1
  inhibition at 10 µM: -4%
[3]
  inhibition at 10 µM: -3%
Glutamate, NMDA, Glycine
  inhibition at 10 µM: -9%
Melatonin MT1
  inhibition at 10 µM: 7%
Muscarinic M3
  inhibition at 10 µM: 4%
[4]
  inhibition at 10 µM: 7%
hERG potassium channel
  inhibition at 10 µM: 16%
Prostanoid EP4
  inhibition at 10 µM: 16%
[5]
  inhibition at 10 µM: 7%
Sigma σ1
  inhibition at 10 µM: 3%
Transporter, GABA
  % inh at 10 μM: 0%
[6]
  inhibition at 10 µM: 1%
